The subject of data set [1] is anoxic HT29 cell suspensions. In words: Rate constant for metabolic consumption kmet in anoxic single cell suspensions. In kind it is in vitro ADME. To be noted: scaled to the cell density in MCLs.
The nature of data set [2]: One electron reduction potential E. In kind it is physicochemical. The following applies: anaerobic aqueous solution, pH 7.0, pulse radiolysis.
Data set [3] has as its system anoxic HT29 tumor tissue. As to the kind of experiment: Penetration half distance X½ calculated from D and kmet. The following applies: for EVT based on X½ (in words): compared with TPZ.
In data set [4] the test system is HT29 cells. In words: IC50 assay, 4 h drug exposure under aerobic and anoxic conditions, HT29. To be noted: criterion HCR > 20 in the PK/PD model. The data set is classed as cell-based.
For data set [5] the following is noted: calculated using ACD logD, pH 7.4; cited from earlier work.
The conditions of data set [6]: culture medium; cited from earlier work.
For data set [7] the following is noted: cited from earlier work; for E(1): one electron reduction potential.
The conditions of data set [8]: side chain, calculated using ACD pKa; cited from earlier work.
The test system of data set [9] is HT29 cells. The following applies: read-out: HT29 IC50 hypox; HT29, anoxic; cited from earlier work.
The subject of data set [10] is SiHa cells. The following applies: cited from earlier work.
In data set [11] the test system is HT29 MCLs. To be noted: calculated; cited from earlier work.
The subject of data set [12] is anoxic HT29 cell suspensions. The following applies: scaled to MCL cell density; cited from earlier work.

Consider 34 molecules from publication PMC2690574 (Journal of medicinal chemistry, 2008).

SMILES strings stand for the structures. Like-named read-outs stand apart in the source and are kept apart here.

What is called pKa is the pH at which an ionisable group is half protonated. The IC50 is the concentration that inhibits the measured activity by half.

Turning to `Nc1n[n+]([O-])c2cc3c(cc2[n+]1[O-])CCC3` [TTO 3], the “kmet (first order rate constant for metabolism)” value (“kmet” for short) in data set [1] was found to be 0.47 min⁻¹.
Take `CN(C)CCNc1n[n+]([O-])c2cc3c(cc2[n+]1[O-])CCC3` [TTO 4]: in [2], the “E(1)” value is recorded as −486 mV. Besides, the “kmet” value in data set [1] worked out at 0.44 min⁻¹.
For `CCN(CC)CCNc1n[n+]([O-])c2cc3c(cc2[n+]1[O-])CCC3` [TTO 5], the “kmet” value in data set [1] turned out to be 1.08 min⁻¹.
For the molecule `CCCN(CCC)CCNc1n[n+]([O-])c2cc3c(cc2[n+]1[O-])CCC3` [TTO 6], the “kmet” value in [1] worked out at 1.07 min⁻¹.
Same read-out and setting: next, `[O-][n+]1nc(NCCN2CCCCC2)[n+]([O-])c2cc3c(cc21)CCC3` [TTO 7]: 1.25 min⁻¹; `[O-][n+]1nc(NCCCN2CCOCC2)[n+]([O-])c2cc3c(cc21)CCC3` [TTO 8]: 0.19 min⁻¹.
With `CN(C)CCNc1n[n+]([O-])c2c3c(ccc2[n+]1[O-])CCC3` [TTO 9], the “E(1)” value in data set [2] is given as −480 mV. Besides, the “kmet” value in data set [1] was found to be 0.74 min⁻¹.
As for `CCN(CC)CCNc1n[n+]([O-])c2c3c(ccc2[n+]1[O-])CCC3` [TTO 10], the “kmet” value in data set [1] was found to be 0.97 min⁻¹.
On the same count and under the same terms, next, `CCCN(CCC)CCNc1n[n+]([O-])c2c3c(ccc2[n+]1[O-])CCC3` [TTO 11]: 0.73 min⁻¹; `[O-][n+]1nc(NCCN2CCCCC2)[n+]([O-])c2ccc3c(c21)CCC3` [TTO 12]: 1.60 min⁻¹.
In the case of `[O-][n+]1nc(NCCCN2CCOCC2)[n+]([O-])c2ccc3c(c21)CCC3` [TTO 13], in data set [2], the “E(1)” value is −510 mV. Moreover, the “kmet” value in data set [1] was 0.20 min⁻¹.
As for `CC1Cc2cc3c(cc2C1)[n+]([O-])c(NCCN(C)C)n[n+]3[O-]` (centres unmarked) [TTO 14], in data set [1], the “kmet” value was 1.49 min⁻¹.
Same read-out and setting: in the case of `CC1Cc2cc3c(cc2C1)[n+]([O-])c(NCCCN1CCOCC1)n[n+]3[O-]` (centres unmarked) [TTO 15] it was 0.13 min⁻¹; in that of `[O-][n+]1nc(NCCCN2CCOCC2)[n+]([O-])c2cc3c(cc21)CCCC3` [TTO 17], 0.69 min⁻¹; in that of `CN(C)CCNc1n[n+]([O-])c2c3c(ccc2[n+]1[O-])CCCC3` [TTO 18], 1.78 min⁻¹.
For `CN(C)CCNc1n[n+]([O-])c2cc3c(cc2[n+]1[O-])CCCCC3` [TTO 19], the “E(1)” value in data set [2] is on record as −488 mV. In data set [1], the “kmet” value was determined as 1.52 min⁻¹.
For the molecule `[O-][n+]1nc(NCCCN2CCOCC2)[n+]([O-])c2cc3c(cc21)OCC3` [TTO 21], the “kmet” value in data set [1] is 0.20 min⁻¹. In addition, the “EVT based on X½ (in words)” value in [3] is “predicted to display improved EVT”.
As for `Nc1n[n+]([O-])c2cc3c(cc2[n+]1[O-])OCC3` [TTO 22], the “hypoxic selectivity (in words)” value in data set [4] is “failed to pass the criterion for hypoxic selectivity (HCR > 20)”.
For `CN(C)CCNc1n[n+]([O-])c2cc3c(cc2[n+]1[O-])OCC3` [TTO 23], the “E(1)” value in data set [2] is on record as −545 mV. For the same molecule, in data set [1], the “kmet” value is 0.60 min⁻¹.
Consider `CCN(CC)CCNc1n[n+]([O-])c2cc3c(cc2[n+]1[O-])OCC3` [TTO 24], for which the “kmet” value in data set [1] is 0.26 min⁻¹. The “EVT based on X½ (in words)” value in data set [3] is recorded as “predicted to display improved EVT”.
The matching figures for `[O-][n+]1nc(NCCCN2CCOCC2)[n+]([O-])c2cc3c(cc21)CCO3` [TTO 25]: 0.23 min⁻¹ and “predicted to display improved EVT”.
Turning to `CN(C)CCNc1n[n+]([O-])c2c3c(ccc2[n+]1[O-])OCCC3` [TTO 29], the “kmet” value in [1] worked out at 0.59 min⁻¹.
In the case of `CCN1Cc2cc3c(cc2C1)[n+]([O-])c(N)n[n+]3[O-]` [TTO 31], the “E(1)” value in data set [2] is recorded as −390 mV. The “kmet” value in data set [1] worked out at 2.20 min⁻¹.
For `CCNc1n[n+]([O-])c2cc3c(cc2[n+]1[O-])CN(C)CC3` [TTO 32], the “E(1)” value in [2] is listed as −462 mV.
Take `CC1Cc2cc3c(cc2C1)[n+]([O-])c(CCCO)n[n+]3[O-]` (centres unmarked) [TTO 33]: in data set [1], the “kmet” value is 0.24 min⁻¹.
On to `CCc1n[n+]([O-])c2cc3c(cc2[n+]1[O-])CC(CO)C3` (centres unmarked) [TTO 35], for which the “E(1)” value in data set [2] is −452 mV. The “kmet” value in data set [1] was determined as 0.47 min⁻¹.
As to `CCc1n[n+]([O-])c2cc3c(cc2[n+]1[O-])CC(CN1CCOCC1)C3` (centres unmarked) [TTO 36], the “kmet” value in data set [1] is 0.54 min⁻¹.
For `[O-][n+]1nc(CCCN2CCOCC2)[n+]([O-])c2cc3c(cc21)CC(CO)C3` (centres unmarked) [TTO 37], the “E(1)” value in [2] was −408 mV. In [1], the “kmet” value was determined as 0.90 min⁻¹.
On to `CCc1n[n+]([O-])c2cc3c(cc2[n+]1[O-])CC(CCO)C3` (centres unmarked) [TTO 38], for which the “kmet” value in data set [1] amounted to 0.54 min⁻¹.
Regarding `CCc1n[n+]([O-])c2cc3c(cc2[n+]1[O-])CC(CCN1CCOCC1)C3` (centres unmarked) [TTO 39], the “E(1)” value in data set [2] is −431 mV. Moreover, the “kmet” value in data set [1] stood at 0.54 min⁻¹. For the same molecule, the “X½ (penetration half distance)” value in data set [3] (anoxic HT29 tumor tissue, from D and kmet) was 100 μm.
With `[O-][n+]1nc(CCCN2CCOCC2)[n+]([O-])c2cc3c(cc21)CCO3` [TTO 40], in data set [2], the “E(1)” value is recorded as −468 mV. In addition, in [1], the “kmet” value turned out to be 0.31 min⁻¹.
On to `CCc1n[n+]([O-])c2cc3c(cc2[n+]1[O-])CN(C)CC3` [TTO 41], for which the “E(1)” value in data set [2] was −344 mV.
Regarding `Nc1n[n+]([O-])c2ccccc2[n+]1[O-]` [compound 1, tirapazamine], in data set [5], the logP7.4 calc is on record as −0.33. Further, the Sol. in [6] is listed as 9 mM. Moreover, the “E(1)” value in data set [7] was −456 mV.
In the case of `COc1ccc2c(c1)[n+]([O-])c(NCCN(C)C)n[n+]2[O-]` [compound 2], in data set [8], the pKa is reported as 8.5. In [5], the logP7.4 calc was −0.07. Moreover, the Sol. in [6] is listed as 46 mM. Also, the “E(1)” value in data set [7] is −500 mV. Besides, the “lowering of E(1) by 6-OMe substituent” value in data set [7] (relative to the 3-dimethylaminoethylamine BTO) was 104 mV. In addition, the IC50 in [9] is 7.7 µM; in [10] (read-out: SiHa IC50 hypox, anoxic), 2.9 µM. Also, in [10] (oxic IC50/hypoxic IC50), the “SiHa HCR” value was 232. In [11], the “D calc (diffusion coefficient in HT29 MCLs)” value is 2.9 ×10^−7 cm^2s^−1. Also, the “kmet” value in [12] was 0.54 min⁻¹.
